Measured values reported in paper PMC9953717, “Novel Green Fluorescent Polyamines to Analyze ATP13A2 and ATP13A3 Activity in the Mammalian Polyamine Transport System” (Biomolecules, 2023).

Target: T1, human ATP13A3 WT (A3 WT-OE) (Homo sapiens, UniProt Q9H7F0)
T1 construct: compared with catalytically dead D498N
T1 sequence (Q9H7F0 1-1226): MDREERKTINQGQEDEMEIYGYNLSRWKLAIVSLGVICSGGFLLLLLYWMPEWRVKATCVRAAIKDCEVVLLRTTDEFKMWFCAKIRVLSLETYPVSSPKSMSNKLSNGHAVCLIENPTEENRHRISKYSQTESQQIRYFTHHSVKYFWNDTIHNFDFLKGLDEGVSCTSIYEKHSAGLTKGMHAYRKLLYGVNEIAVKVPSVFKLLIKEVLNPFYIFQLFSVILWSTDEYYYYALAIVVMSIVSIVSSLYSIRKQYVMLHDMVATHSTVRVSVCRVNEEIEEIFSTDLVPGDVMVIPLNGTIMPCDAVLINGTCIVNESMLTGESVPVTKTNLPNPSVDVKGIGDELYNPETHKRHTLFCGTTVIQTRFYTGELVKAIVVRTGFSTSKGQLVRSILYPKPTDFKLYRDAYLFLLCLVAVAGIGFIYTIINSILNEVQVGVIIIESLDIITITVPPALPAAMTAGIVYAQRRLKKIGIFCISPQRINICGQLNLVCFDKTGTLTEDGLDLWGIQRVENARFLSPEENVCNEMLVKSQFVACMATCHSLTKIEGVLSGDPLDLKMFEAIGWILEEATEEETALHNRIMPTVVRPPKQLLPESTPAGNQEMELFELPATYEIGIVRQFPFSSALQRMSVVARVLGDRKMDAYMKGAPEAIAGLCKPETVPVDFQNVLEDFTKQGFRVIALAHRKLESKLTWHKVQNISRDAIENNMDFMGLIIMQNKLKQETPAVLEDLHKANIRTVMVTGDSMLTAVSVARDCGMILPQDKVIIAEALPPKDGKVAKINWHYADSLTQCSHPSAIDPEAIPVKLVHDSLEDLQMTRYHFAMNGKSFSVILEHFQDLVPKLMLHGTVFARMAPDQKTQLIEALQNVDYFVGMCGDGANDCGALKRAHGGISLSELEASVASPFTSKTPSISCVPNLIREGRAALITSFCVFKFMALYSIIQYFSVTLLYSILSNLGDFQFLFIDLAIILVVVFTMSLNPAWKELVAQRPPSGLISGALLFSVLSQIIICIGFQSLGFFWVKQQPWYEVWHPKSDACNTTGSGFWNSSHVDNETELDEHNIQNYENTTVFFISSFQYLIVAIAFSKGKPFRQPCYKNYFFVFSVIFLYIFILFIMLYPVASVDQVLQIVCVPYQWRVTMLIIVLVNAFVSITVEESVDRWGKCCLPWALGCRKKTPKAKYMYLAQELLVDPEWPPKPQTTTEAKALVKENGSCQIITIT
Assay: radiolabeled uptake in HMEC-1 cells, WT versus D498N overexpression
Format: cell-based
Details: 30 min, 37 °C, labelled compound

## NCCCCNCCCN [14C-SPD]
  fold uptake at 5 μM: 41 fold

## NCCCCN [14C-PUT]
  fold uptake at 5 μM: 26 fold
